Results: patent US8729089B2 (Gilead Sciences, Inc., priority 2006, dated 2014)

What was measured:
[1] = system: HCV replicon in human hepatoma Huh-7 cell line; experiment: Anti-HCV replicon assay (EC50, luciferase); type: cell-based
In short: (§1)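 Cytotoxicity (CC50) measured by CellTiter-Glo and antiviral activity (EC50) by luciferase signal from lysed cells, both by luminescence. Replicon-bearing Huh-7 cells, 6000 per well, incubated 3 days at 37 °C with threefold-diluted compound (0.5% DMSO for DMSO-dissolved compounds).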

[2] = system: Huh-7 HCV replicon cells; experiment: CC50 assay (CellTiter-Glo) in Huh-7 HCV replicon cells; type: cell-based, human; conditions: 3 days incubation, CellTiter-Glo readout
In short: as §1

[3] = as above; type: cell-based, human; conditions: human, 3 days incubation, CellTiter-Glo readout
In short: as §1

[4] = Huh-7 HCV replicon cells, 3 days incubation, luciferase readout

SMILES | EC50 [1, 4] | CC50 [2] | EC50 ([1]; Hepatitis C virus, Huh-7, 72 h) | CC50 at 3 days [3]
CC(Nc1nc(NCC(F)(F)F)c2nc(-c3ccc(F)cc3)ccc2n1)c1ccc(S(N)(=O)=O)cc1 (stereo not drawn) [Example 250, 4-{1-[6-(4-Fluoro-phenyl)-4-(2,2,2-trifluoro-ethylamino)-pyrido[3,2-d]pyrimidin-2-ylamino]-ethyl}-benzenesulfonamide] | < 0.1 µM | < 5 µM |  | 
CC(Nc1nc(NCC(F)(F)F)c2nc(-c3ccc(F)cc3)ccc2n1)c1ccc(S(N)(=O)=O)cc1 (stereo not drawn) [Example 257, 4-{1-[6-(4-Fluoro-phenyl)-4-(2,2,2-trifluoro-ethylamino)-pyrido[3,2-d]pyrimidin-2-ylamino]-ethyl}-benzenesulfonamide] | < 0.1 µM | 5 to 25 µM |  | 
NC(=O)c1ccc(-c2ccc3nc(NCc4ccc(S(N)(=O)=O)cc4)nc(C4CC4)c3n2)cc1 [Example 292, 4-[4-Cyclopropyl-2-(4-sulfamoyl-benzylamino)-pyrido[3,2-d]pyrimidin-6-yl]-benzamide] |  |  | < 0.1 µM | 5 to 25 µM
NS(=O)(=O)c1ccc(CNc2nc(C3CC3)c3nc(-c4ccc(C(=O)NC5CC5)cc4)ccc3n2)cc1 [Example 293, N-Cyclopropyl-4-[4-cyclopropyl-2-(4-sulfamoyl-benzylamino)-pyrido[3,2-d]pyrimidin-6-yl]-benzamide] |  |  | < 0.1 µM | < 5 µM
NS(=O)(=O)c1ccc(CNc2nc(C3CC3)c3nc(-c4ccc(F)cc4)ccc3n2)cc1 [Example 294, 4-{[4-Cyclopropyl-6-(4-fluoro-phenyl)-pyrido[3,2-d]pyrimidin-2-ylamino]-methyl}-benzenesulfonamide] |  |  | < 0.1 µM | < 5 µM
CCCc1nc(NCc2ccc(F)cc2)nc2ccc(-c3ccc(NC(=O)C(C)(C)N)cc3)nc12 [Example 295, 2-Amino-N-{4-[2-(4-fluoro-benzylamino)-4-propyl-pyrido[3,2-d]pyrimidin-6-yl]-phenyl}-2-methyl-propionamide] |  |  | < 0.1 µM | > 25 µM
NS(=O)(=O)c1ccc(CNc2nc(NC3CC3)c3nc(-c4ccc(F)cc4)ccc3n2)cc1 [Example 296, 4-{[4-Cyclopropylamino-6-(4-fluoro-phenyl)-pyrido[3,2-d]pyrimidin-2-ylamino]-methyl}-benzenesulfonamide] |  |  | < 0.1 µM | > 25 µM
CCNc1nc(NCc2ccc(S(N)(=O)=O)cc2)nc2ccc(-c3ccc(F)cc3)nc12 [Example 297, 4-{[4-Ethylamino-6-(4-fluoro-phenyl)-pyrido[3,2-d]pyrimidin-2-ylamino]-methyl}-benzenesulfonamide] |  |  | < 0.1 µM | < 5 µM
Fc1ccc(CNc2nc(N[C@@H]3CCOC3)c3nc(-c4ccc(F)cc4)ccc3n2)cc1 [Example 298, N2-(4-Fluoro-benzyl)-6-(4-fluoro-phenyl)-N4-(tetrahydro-furan-3-yl)-pyrido[3,2-d]pyrimidine-2,4-diamine] |  |  | < 0.1 µM | 5 to 25 µM
CS(=O)(=O)CCNc1nc(NCc2ccc(F)cc2)nc2ccc(-c3ccc(F)cc3)nc12 [Example 299, N2-(4-Fluoro-benzyl)-6-(4-fluoro-phenyl)-N4-(2-methanesulfonyl-ethyl)-pyrido[3,2-d]pyrimidine-2,4-diamine] |  |  | < 0.1 µM | 5 to 25 µM
CC1(Oc2nc(NCc3ccc(S(N)(=O)=O)cc3)nc3ccc(-c4ccc(F)cc4)nc23)CC1 [Example 301, 4-{[6-(4-Fluoro-phenyl)-4-(1-methyl-cyclopropoxy)-pyrido[3,2-d]pyrimidin-2-ylamino]-methyl}-benzenesulfonamide] |  |  | < 0.1 µM | < 5 µM
N#CC1(Nc2nc(NCc3ccc(S(N)(=O)=O)cc3)nc3ccc(-c4ccc(F)cc4)nc23)CC1 [Example 303, 4-{[4-(1-Cyano-cyclopropylamino)-6-(4-fluoro-phenyl)-pyrido[3,2-d]pyrimidin-2-ylamino]-methyl}-benzenesulfonamide] |  |  | < 0.1 µM | 5 to 25 µM
